experiment: Drug solubility in medium-chain triglycerides (MCT, Miglyol 812 N); SORESOS 96-well assay, miniaturized shake-flask or literature; settings: decadic logarithm of molar solubility in MCTs (Miglyol 812 N), 24 h at room temperature; no literature source given
Experimental: The excipient complies with the quality specifications of the European Pharmacopoeia. The solvents used for the ultra-performance liquid chromatography (UPLC) quantification were of UPLC grade.
(b) employing a miniaturized version of the shake-flask method in 2 mL glass vials,[33] or (c) collecting data from the literature.[12],[34] Each of the employed assays involved residual solid-state screenings by powder X-ray diffraction to identify potential solid-state changes during solubility screenings.

Structure (SMILES)	log10 S [M]
CCC1=C(C)CN(C(=O)NCCc2ccc(S(=O)(=O)NC(=O)N[C@H]3CC[C@H](C)CC3)cc2)C1=O [glimepiride]	-4.38 M
CC(C)(C)c1ccc(CN(CCc2cc(F)cc(C(F)(F)F)c2)C(=O)c2cc(C(F)(F)F)cc(Cl)c2F)cc1 [RO5072744]	0.0355 M
O=C(N[C@@H]1CCCC[C@H]1O)c1cnc(OCC(F)(F)F)c(-c2ccc(Cl)c(Cl)c2)c1 [RO5267683]	-2.34 M
Cc1cc(N(C)Cc2sc(-c3ccc(C(F)(F)F)cc3)nc2C)ccc1OCC(=O)O [RO4632615]	-2.28 M
Cc1cc(-n2c(=O)[nH]c(=O)n(C)c2=O)ccc1Oc1ccc(SC(F)(F)F)cc1 [toltrazuril]	-2.35 M
O=C(O)c1ccccc1Nc1cccc(C(F)(F)F)c1 [flufenamic acid]	-0.68 M
CN1C(=O)N(c2c(F)cc(C#Cc3ccccc3)cc2F)C(=O)C[C@]12CCCc1ncccc12 [RO7059466]	-2.38 M
CN(C)CCCN1c2ccccc2Sc2ccc(Cl)cc21 [chlorpromazine]	-0.17 M
CC(C)(C)c1ccc(CN(CCc2cccc(C(F)(F)F)c2)C(=O)c2c(F)c(Cl)cc3cc[nH]c23)cc1 [RO4920902]	-1.55 M
O=C1CCc2cc(OCCCCc3nnnn3C3CCCCC3)ccc2N1 [cilostazol]	-3.68 M
COc1ccc(-c2ccccc2)c2sc(NC(=O)c3ccc(F)cc3)nc12 [RO0691911]	-1.71 M
Cc1onc(-c2ccc(F)cn2)c1COc1ccc(C(=O)N2CCS(=O)(=O)CC2)cn1 [RO5292065]	-2.89 M
COc1ccc(N2CCOCC2)c2sc(NC(=O)c3ccc(C(F)(F)F)cc3)nc12 [RO0720004]	-1.93 M
O=C1Nc2ccc(Cl)cc2[C@@](C#CC2CC2)(C(F)(F)F)O1 [efavirenz]	-0.22 M
CN(C(=O)C(C)(C)c1cc(C(F)(F)F)cc(C(F)(F)F)c1)c1cnc(N2CCOCC2)cc1-c1ccccc1Cl [RO0676789]	-1.07 M
CC(C)C(=O)c1c(C(C)C)nn2ccccc12 [ibudilast]	0.0143 M
COc1ccc(CCN2CCC(Nc3nc4ccccc4n3Cc3ccc(F)cc3)CC2)cc1 [astemizole]	-2.37 M
CO[C@@H](Cc1ccc(OCCc2nc(-c3ccccc3)oc2C)c2ccsc12)C(=O)O [aleglitazar]	-2.77 M
CC1(C(=O)N2C[C@H](S(=O)(=O)c3ccc(OCC(F)(F)F)cc3C(F)(F)F)C[C@@H]2C(=O)NC2(C#N)CC2)CC1 [RO5444101]	-2.64 M
CC[C@@H]([C@H](C)O)n1ncn(-c2ccc(N3CCN(c4ccc(OC[C@@H]5CO[C@@](Cn6cncn6)(c6ccc(F)cc6F)C5)cc4)CC3)cc2)c1=O [posaconazole]	-3.55 M
CCOC(=O)N1CCC(=C2c3ccc(Cl)cc3CCc3cccnc32)CC1 [loratadine]	-1.21 M
OC(c1cc(C(F)(F)F)nc2c(C(F)(F)F)cccc12)C1CCCCN1 (stereo not shown) [mefloquine]	-1.74 M
Cn1cc(-c2ccc(S(=O)(=O)[C@@H]3C[C@@H](C(=O)NC4(C#N)CC4)N(C(=O)C4(C(F)(F)F)CC4)C3)c(C(F)(F)F)c2)cn1 [RO5459072]	-3.13 M

Structure (SMILES)	log10 S [M]
OC(Cn1cncn1)(Cn1cncn1)c1ccc(F)cc1F [fluconazole]	-2.19 M
O=C(Nc1ccc(Cl)cn1)[C@@H]1CN(CC(F)F)C[C@H]1C(=O)Nc1ccc(-n2ccccc2=O)cc1F [RO4934067]	-2.53 M
COc1cc(C(=O)O)ccc1NC(=O)[C@@H]1N[C@@H](CC(C)(C)C)[C@](C#N)(c2ccc(Cl)cc2F)[C@H]1c1cccc(Cl)c1F [RO5503781]	-1.68 M
C#Cc1cccc(Nc2ncnc3cc(OCCOC)c(OCCOC)cc23)c1 [erlotinib]	-2.70 M
COC(=O)N1CC[C@@H]2[C@@H]1CCC[C@@]2(O)C#Cc1cccc(C)c1 [RO6805580]	-1.31 M
CC(C)C(=O)Nc1ccc([N+](=O)[O-])c(C(F)(F)F)c1 [flutamide]	-0.97 M
CC(C)(Oc1ccc(Cl)cc1)C(=O)O [clofibric acid]	-0.63 M
Cc1cc(-c2cccc(C3=Nc4cc(C)c(C(F)(F)F)cc4NC(=O)C3)c2)ccn1 [RO4432717]	-2.89 M
FC(F)c1ncn2c1Cn1ncnc1-c1cc(Br)ccc1-2 [RO4938581]	-2.98 M
CC1(C)CCC(C)(C)c2cc(Cn3cccn3)c(/C=C/c3ccc(C(=O)O)cc3)cc21 [palovarotene]	-3.47 M
Cn1c(=O)c2[nH]cnc2n(C)c1=O [theophylline]	-2.92 M
Cc1cc(OCc2ccc(-c3ccc(OC(F)(F)F)cc3)nc2)ccc1OC(C)(C)C(=O)O [RO4883572]	-2.52 M
CCO[C@H](Cc1ccc2c(ccn2Cc2nc(-c3ccccc3Cl)oc2C)c1)C(=O)O [RO4552952]	-1.66 M
CCC(CC)CC1(C(=O)Nc2ccccc2SC(=O)C(C)C)CCCCC1 [RO4607381]	-0.41 M
COc1ccc(C2CCOCC2)c2sc(NC(=O)N(C)C3CCC(O)CC3)nc12 (stereo not shown) [RO4518423]	-2.61 M
CC(C(=O)O)c1ccc2c(c1)[nH]c1ccc(Cl)cc12 (stereo not shown) [carprofen]	-1.29 M
COc1ccc(N2CCCCC2)c2sc(NC(=O)c3ccc(F)cc3)nc12 [RO0718883]	-1.84 M
C[C@@H](O[C@H]1OCCN(Cc2n[nH]c(=O)[nH]2)[C@H]1c1ccc(F)cc1)c1cc(C(F)(F)F)cc(C(F)(F)F)c1 [aprepitant]	-3.40 M
CC(C)(C)NC(=O)[C@@H]1C[C@@H]2CCCC[C@@H]2CN1C[C@@H](O)[C@H](Cc1ccccc1)NC(=O)[C@H](CC(N)=O)NC(=O)c1ccc2ccccc2n1 [saquinavir]	-3.11 M
COc1ccc(N2CCOCC2)c2sc(NC(=O)c3ccc(F)cc3)nc12 [RO0716689]	-2.41 M
CNC(=O)c1ccc(N2C(=S)N(c3ccc(C#N)c(C(F)(F)F)c3)C(=O)C2(C)C)cc1F [enzalutamide]	-2.36 M
CC(C)(C)c1ccc(CN(CCc2ccc(F)c(C(F)(F)F)c2)C(=O)c2c(F)c(Cl)cc3cc[nH]c23)cc1 [RO4920915]	-1.47 M
CCCS(=O)(=O)Nc1ccc(F)c(C(=O)c2c[nH]c3ncc(-c4ccc(Cl)cc4)cc23)c1F [RO5185426]	-3.06 M

Structure (SMILES)	log10 S [M]
CC1(C)OC2(CCN(C3=NC(=O)C4(Cc5ccccc5C4)O3)CC2)c2cccnc21 [RO6953958]	-2.47 M
COc1ccc(N2CCOCC2)c2sc(NC(=O)c3ccnc(CN4CCCC4)c3)nc12 [RO0728617]	-3.00 M
COc1ccc(Cl)cc1S(=O)(=O)N1CCOc2c(C)cc(C(=O)Nc3ccc(CC(=O)O)cc3)cc21 [RO5114497]	-3.73 M
Cc1ccc(-c2noc(C)c2COc2ccc(C(=O)NC3CCOCC3)nn2)cn1 [RO7017773]	-2.24 M
CC[C@H](C)C(=O)O[C@H]1C[C@@H](C)C=C2C=C[C@H](C)[C@H](CC[C@@H]3C[C@@H](O)CC(=O)O3)[C@H]21 [lovastatin]	-2.45 M
CN(C)C(=O)Cc1c(C(=O)O)n(Cc2cccc3ccccc23)c2ccc(F)cc12 [RO5066852]	-3.11 M
CC(C)(C)c1ccc(C(O)CCCN2CCC(C(O)(c3ccccc3)c3ccccc3)CC2)cc1 (stereo not shown) [terfenadine]	-2.05 M
Cc1onc(-c2ccc(F)cc2)c1COc1ccc(C(=O)N2CCS(=O)(=O)CC2)cn1 [RO5186582]	-2.53 M
Cc1cc(C#N)cc(C)c1Oc1nc(Nc2ccc(C#N)cc2)nc(N)c1Br [etravirine]	-3.28 M
COc1ccc(C)cc1S(=O)(=O)N1CCCc2ccc(C(=O)Nc3ccc(C(=O)O)c(F)c3)cc21 [RO5033672]	-4.19 M
CN1CC(=O)N2[C@H](c3ccc4c(c3)OCO4)c3[nH]c4ccccc4c3C[C@@H]2C1=O [tadalafil]	-2.99 M
COc1ccc(N2CCOCC2)c2sc(NC(=O)N(C)[C@@H]3C[C@H]4CC[C@@H]3O4)nc12 [RO4651862]	-2.04 M
N#Cc1cc(-c2ccc(F)c(F)c2)c2c(c1)cc1n2CCNC1=O [RO6889199]	-3.08 M
COc1ccc(N2CCOCC2)c2sc(NC(=O)N3CCC(CO)CC3)nc12 [RO0725612]	-4.65 M
Cc1onc(-c2ccccn2)c1COc1ccc(C(=O)N2CCOCC2)cn1 [RO5234906]	-1.90 M
COc1ccc(N2CCOCC2)c2sc(NC(=O)N(C)C3CCC(O)CC3)nc12 (stereo not shown) [RO4403289]	-3.39 M
Clc1ccc(COC(Cn2ccnc2)c2ccc(Cl)cc2Cl)c(Cl)c1 (stereo not shown) [miconazole]	-0.86 M
Cn1nnnc1Cn1nnc2c(N3CC[C@@H](O)C3)nc(C(C)(C)C)nc21 [RO6868847]	-1.56 M
CCOC(=O)C1=C(COCCN)NC(C)=C(C(=O)OC)C1c1ccccc1Cl (stereo not shown) [amlodipine]	-1.45 M
Cn1c(COc2cc(Cl)c(C#N)cc2C(C)(C)C)n[nH]c1=O [RO7189752]	-2.76 M
Cc1sc(NC(=O)C2=C(C(=O)O)CCCC2)c(-c2nc(C3CC3)no2)c1C [RO6858805]	-2.99 M

Source: PMC11220795 (Molecular Pharmaceutics, 2024)
